Test results taken from ChEMBL document CHEMBL5506074, “Discovery and Optimization of Tetrahydroisoquinoline Derivatives To Enhance Lysosome Biogenesis as Preclinical Candidates for the Treatment of Alzheimer's Disease” (J Med Chem, 2024).
Active and inactive are the calls of the source. The rule behind the calls is not given here.

Key:
[1] = Induction of TFEB nuclear translocation in human HeLa cells expressing EGFP at 10 uM measured at 3 hrs by fluorescence microscopic analysis; assay type: functional
[2] = Induction of TFEB nuclear translocation in human HeLa cells expressing EGFP at 10 uM measured at 6 hrs by fluorescence microscopic analysis; assay type: functional
[3] = Induction of TFEB nuclear translocation in human HeLa cells expressing EGFP at 30 uM measured at 3 hrs by fluorescence microscopic analysis; assay type: functional
[4] = Induction of TFEB nuclear translocation in human HeLa cells expressing EGFP at 30 uM measured at 6 hrs by fluorescence microscopic analysis; assay type: functional
[5] = AUC (0 to t) in ICR mouse at 5 mg/kg, iv measured upto 24 hrs by LC-MS/MS analysis; assay type: ADME, organism-based; conditions: ICR, in vivo
HeLa [6] = test: Induction of lysosome biogenesis in human HeLa cells assessed as increase in number of acidified lysosomes at 10 uM incubated for 24 hrs by LysiTracker red staining based flow cytometry analysis; assay type: functional, cell-based
HeLa [7] = test: Upregulation of LAMP1 mRNA expression in human HeLa cells at 10 uM incubated for 24 hrs by qRT-PCR analysis; assay type: functional, cell-based
HeLa [8] = test: Upregulation of HEXA mRNA expression in human HeLa cells at 10 uM incubated for 24 hrs by qRT-PCR analysis; assay type: functional, cell-based
HeLa [9] = test: Upregulation of CTSD mRNA expression in human HeLa cells at 10 uM incubated for 24 hrs by qRT-PCR analysis; assay type: functional, cell-based
HeLa [10] = test: Upregulation of CTSF mRNA expression in human HeLa cells at 10 uM incubated for 24 hrs by qRT-PCR analysis; assay type: functional, cell-based
HeLa [11] = test: Upregulation of LC3B mRNA expression in human HeLa cells at 10 uM incubated for 24 hrs by qRT-PCR analysis; assay type: functional, cell-based
HeLa [12] = test: Upregulation of OPTN mRNA expression in human HeLa cells at 10 uM incubated for 24 hrs by qRT-PCR analysis; assay type: functional, cell-based
HeLa [13] = test: Upregulation of p62 mRNA expression in human HeLa cells at 10 uM incubated for 24 hrs by qRT-PCR analysis; assay type: functional, cell-based
HeLa [14] = test: Upregulation of […] mRNA expression in human HeLa cells at 10 uM incubated for 24 hrs by qRT-PCR analysis; assay type: functional, cell-based
HeLa [15] = test: Upregulation of ATG2A mRNA expression in human HeLa cells at 10 uM incubated for 24 hrs by qRT-PCR analysis; assay type: functional, cell-based
HeLa [16] = test: Upregulation of GLA mRNA expression in human HeLa cells at 10 uM incubated for 24 hrs by qRT-PCR analysis; assay type: functional, cell-based
HeLa [17] = test: Upregulation of Atg16L1 mRNA expression in human HeLa cells at 10 uM incubated for 24 hrs by qRT-PCR analysis; assay type: functional, cell-based
HeLa [18] = test: Upregulation of UVRAG mRNA expression in human HeLa cells at 10 uM incubated for 24 hrs by qRT-PCR analysis; assay type: functional, cell-based
HeLa [19] = test: Upregulation of LAMP1 mRNA expression in TFEB knockout human HeLa cells at 10 uM incubated for 24 hrs by qRT-PCR analysis; assay type: functional, cell-based
HeLa [20] = test: Upregulation of HEXA mRNA expression in TFEB knockout human HeLa cells at 10 uM incubated for 24 hrs by qRT-PCR analysis; assay type: functional, cell-based
HeLa [21] = test: Upregulation of CTSD mRNA expression in TFEB knockout human HeLa cells at 10 uM incubated for 24 hrs by qRT-PCR analysis; assay type: functional, cell-based
HeLa [22] = test: Upregulation of CTSF mRNA expression in TFEB knockout human HeLa cells at 10 uM incubated for 24 hrs by qRT-PCR analysis; assay type: functional, cell-based
HeLa [23] = test: Upregulation of LC3B mRNA expression in TFEB knockout human HeLa cells at 10 uM incubated for 24 hrs by qRT-PCR analysis; assay type: functional, cell-based
HeLa [24] = test: Upregulation of OPTN mRNA expression in TFEB knockout human HeLa cells at 10 uM incubated for 24 hrs by qRT-PCR analysis; assay type: functional, cell-based
HeLa [25] = test: Upregulation of p62 mRNA expression in TFEB knockout human HeLa cells at 10 uM incubated for 24 hrs by qRT-PCR analysis; assay type: functional, cell-based
HeLa [26] = test: Upregulation of […] mRNA expression in TFEB knockout human HeLa cells at 10 uM incubated for 24 hrs by qRT-PCR analysis; assay type: functional, cell-based
HeLa [27] = test: Upregulation of ATG2A mRNA expression in TFEB knockout human HeLa cells at 10 uM incubated for 24 hrs by qRT-PCR analysis; assay type: functional, cell-based
HeLa [28] = test: Upregulation of GLA mRNA expression in TFEB knockout human HeLa cells at 10 uM incubated for 24 hrs by qRT-PCR analysis; assay type: functional, cell-based
HeLa [29] = test: Upregulation of Atg16L1 mRNA expression in TFEB knockout human HeLa cells at 10 uM incubated for 24 hrs by qRT-PCR analysis; assay type: functional, cell-based
HeLa [30] = test: Upregulation of UVRAG mRNA expression in TFEB knockout human HeLa cells at 10 uM incubated for 24 hrs by qRT-PCR analysis; assay type: functional, cell-based
[31] = molecular target: Cyclin-dependent kinase 9 (Homo sapiens) (UniProt P50750); test: Inhibition of CDK9 in human SH-SY5Y cells assessed as decrease in Rpb1 phosphorylation at 10 uM incubated for 6 hrs by immunoblotting analysis; assay type: cell-based
Sequence of Cyclin-dependent kinase 9 (Homo sapiens) (P50750 whole entry): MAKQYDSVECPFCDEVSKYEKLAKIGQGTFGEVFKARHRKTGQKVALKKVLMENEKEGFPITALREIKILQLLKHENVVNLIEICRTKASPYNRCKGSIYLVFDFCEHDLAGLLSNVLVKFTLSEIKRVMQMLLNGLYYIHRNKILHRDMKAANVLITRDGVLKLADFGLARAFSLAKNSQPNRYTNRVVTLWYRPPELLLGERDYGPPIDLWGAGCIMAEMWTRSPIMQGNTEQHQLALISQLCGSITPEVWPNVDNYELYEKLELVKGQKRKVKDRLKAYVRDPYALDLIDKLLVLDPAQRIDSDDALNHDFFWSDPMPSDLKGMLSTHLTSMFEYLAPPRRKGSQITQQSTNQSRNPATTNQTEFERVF

HeLa [32] = test: Cytotoxicity against human HeLa cells assessed as effect on cell viability at 10 uM incubated for 24 hrs; assay type: functional, cell-based
SH-SY5Y = test: Cytotoxicity against human SH-SY5Y cells assessed as effect on cell viability at 10 uM incubated for 24 hrs; assay type: functional, cell-based
[33] = tested on: Primary neocortical neuron; test: Cytotoxicity against mouse Primary neocortical neuron cells assessed as effect on cell viability at 10 uM incubated for 24 hrs; assay type: functional, cell-based
HeLa [34] = test: Induction of cell cycle arrest in human HeLa cells assessed as effect on LAMP1 level at 10 uM incubated for 12 hrs by qRT-PCR analysis; assay type: functional, cell-based
HeLa [35] = test: Induction of cell cycle arrest in human HeLa cells assessed as effect on CDK4 level at 10 uM incubated for 12 hrs by qRT-PCR analysis; assay type: functional, cell-based
HeLa [36] = test: Induction of cell cycle arrest in human HeLa cells assessed as effect on CDK7 level at 10 uM incubated for 12 hrs by qRT-PCR analysis; assay type: functional, cell-based
HeLa [37] = test: Induction of cell cycle arrest in human HeLa cells assessed as effect on p21 level at 10 uM incubated for 12 hrs by qRT-PCR analysis; assay type: functional, cell-based
[38] = Volume of distribution at steady state in ICR mouse measured upto 24 hrs by LC-MS/MS analysis; assay type: ADME; conditions: in vivo, read-out: Vdss
[39] = Tmax in ICR mouse at 20 mg/kg, po measured upto 24 hrs by LC-MS/MS analysis; assay type: ADME, organism-based; conditions: in vivo
[40] = Tmax in ICR mouse at 10 mg/kg, ip measured upto 24 hrs by LC-MS/MS analysis; assay type: ADME, organism-based; conditions: in vivo
[41] = Half life in ICR mouse at 20 mg/kg, po measured upto 24 hrs by LC-MS/MS analysis; assay type: ADME, organism-based; conditions: in vivo
[42] = Half life in ICR mouse at 10 mg/kg, ip measured upto 24 hrs by LC-MS/MS analysis; assay type: ADME, organism-based; conditions: in vivo
[43] = Cmax in ICR mouse at 20 mg/kg, po measured upto 24 hrs by LC-MS/MS analysis; assay type: ADME, organism-based; conditions: in vivo
[44] = Cmax in ICR mouse at 10 mg/kg, ip measured upto 24 hrs by LC-MS/MS analysis; assay type: ADME, organism-based; conditions: in vivo
[45] = AUC (0 to t) in ICR mouse at 20 mg/kg, po measured upto 24 hrs by LC-MS/MS analysis; assay type: ADME, organism-based; conditions: ICR, in vivo
[46] = AUC (0 to t) in ICR mouse at 10 mg/kg, ip measured upto 24 hrs by LC-MS/MS analysis; assay type: ADME, organism-based; conditions: in vivo
[47] = Clearance in ICR mouse at 5 mg/kg, iv measured upto 24 hrs by LC-MS/MS analysis; assay type: ADME, organism-based; conditions: in vivo
[48] = Bioavailability in ICR mouse at 5 mg/kg, ip measured upto 24 hrs by LC-MS/MS analysis; assay type: ADME, organism-based; conditions: in vivo
[49] = Oral bioavailability in ICR mouse at 20 mg/kg measured upto 24 hrs by LC-MS/MS analysis; assay type: ADME, organism-based; conditions: ICR, in vivo
[50] = Ratio of drug concentration in ICR mouse brain to plasma at 10 mg/kg, ip measured upto 24 hrs by LC-MS/MS analysis; assay type: ADME, organism-based; conditions: brain and plasma, read-out: BPR
[51] = Ratio of drug concentration in ICR mouse brain to plasma at 5 mg/kg, iv measured upto 24 hrs by LC-MS/MS analysis; assay type: ADME, organism-based; conditions: brain and plasma, read-out: BPR

SMILES: COc1ccc2[nH]cc(CCC3c4cc(OC)c(OC)cc4CCN3CC3CCOCC3)c2c1 (stereo not drawn)
- Activity [1]: 74%
- Activity [2]: 76%
- Activity [3]: 96%
- Activity [4]: 98%
- AUC(0-t) at 24 h [5]: 21.5 ng·h/mL
- Activity (HeLa [6]): Active
- Activity (HeLa [7]): Active
- Activity (HeLa [8]): Active
- Activity (HeLa [9]): Active
- Activity (HeLa [10]): Active
- Activity (HeLa [11]): Active
- Activity (HeLa [12]): Active
- Activity (HeLa [13]): Active
- Activity (HeLa [14]): Active
- Activity (HeLa [15]): Active
- Activity (HeLa [16]): Active
- Activity (HeLa [17]): Active
- Activity (HeLa [18]): Active
- Activity (HeLa [19]): Active
- Activity (HeLa [20]): Active
- Activity (HeLa [21]): Active
- Activity (HeLa [22]): Active
- Activity (HeLa [23]): Active
- Activity (HeLa [24]): Active
- Activity (HeLa [25]): Active
- Activity (HeLa [26]): Active
- Activity (HeLa [27]): Active
- Activity (HeLa [28]): Active
- Activity (HeLa [29]): Active
- Activity (HeLa [30]): Active
- inhibition [31]: Active
- Activity (HeLa [32]): Active
- Activity (SH-SY5Y): Active
- Activity [33]: Active
- Activity (HeLa [34]): inactive
- Activity (HeLa [35]): inactive
- Activity (HeLa [36]): inactive
- Activity (HeLa [37]): inactive
- Vd [38]: 97.5 L/kg

SMILES: COc1cc2c(cc1OC)C(CCc1c[nH]c3ccccc13)N(CC1CCOCC1)CC2 (stereo not drawn)
- Activity [1]: 27%
- Activity [2]: 47%
- Activity [3]: 85%
- Activity [4]: 85%
- Tmax [39]: 25.2 min
- Tmax [40]: 10.8 min
- half-life [41]: 216 min
- half-life [42]: 58.2 min
- Cmax [43]: 9.14 ng/mL
- Cmax [44]: 620 ng/mL
- AUC(0-t) at 24 h [45]: 16.3 ng·h/mL
- AUC(0-t) at 24 h [46]: 609 ng·h/mL
- AUC(0-t) at 24 h [5]: 604 ng·h/mL
- clearance [47]: 140 mL/min/kg
- bioavailability [48]: 50.4%
- bioavailability [49]: 0.67%
- Kp at 24 h [50]: 1.9
- Kp at 24 h [51]: 2.2
- Activity (HeLa [6]): Active
- Activity (HeLa [7]): Active
- Activity (HeLa [8]): Active
- Activity (HeLa [9]): Active
- Activity (HeLa [10]): Active
- Activity (HeLa [11]): Active
- Activity (HeLa [12]): Active
- Activity (HeLa [13]): Active
- Activity (HeLa [14]): Active
- Activity (HeLa [15]): Active
- Activity (HeLa [16]): Active
- Activity (HeLa [17]): Active
- Activity (HeLa [18]): Active
- Activity (HeLa [19]): Active
- Activity (HeLa [20]): Active
- Activity (HeLa [21]): Active
- Activity (HeLa [22]): Active
- Activity (HeLa [23]): Active
- Activity (HeLa [24]): Active
- Activity (HeLa [25]): Active
- Activity (HeLa [26]): Active
- Activity (HeLa [27]): Active
- Activity (HeLa [28]): Active
- Activity (HeLa [29]): Active
- Activity (HeLa [30]): Active
- Vd [38]: 8.66 L/kg
